{"source": "patent US20080160552A1", "about": "“Methods and Compounds for Treating Inflammation” (priority 2006, published 2008)", "test_system": "HPAE cells", "assay": "Transendothelial electrical resistance (TER) measurement after thrombin", "format": "cell-based, Human", "conditions": "pretreated with 1 uM Go6976 for 30 min, 50 nM thrombin", "text": "FIG. 7. Effects of C1-S96A mutant on MLC phosphorylation, actin stress fiber formation, and loss of endothelial barrier function in response to thrombin. A-B, MLC phosphorylation in response to thrombin in cells transfected with C1 or C1-S96A-GDI-1 mutant. Cells were stimulated with thrombin for indicated time and lysates were Western blotted with anti-phospho-MLC (top) or anti-GFP Abs to determine MLC phosphorylation. […] C, Actin stress fiber formation in response to thrombin in cells transducing GFP-tagged C1 or GFP-tagged C1-S96A mutant. Cells were stimulated with thrombin for 5 min and fixed followed by staining with Alexa-labeled phallodin to determine actin stress fiber formation by confocal imaging. […] TER values are calculated as change in resistance over the value at time zero (n=7). […] After 30 hrs cells were pretreated with 1 uM Go6976 to inhibit PKCα for 30 min and changes in transendothelial electrical resistance (TER) after addition of 50 nM thrombin were determined. TER values are calculated as change in resistance over the value at time zero (n=8). […]\nTransendothelial resistance measurement: The time course of endothelial cell retraction in real time, a measure of increased endothelial permeability, was measured according to the procedure described previously (16, 23)."}
{"smiles": "Cn1c2ccccc2c2c3c(c4c5ccccc5n(CCC#N)c4c21)CNC3=O", "note": "[G66976]", "values": [{"measurement": "thrombin-induced decrease in TER", "setting": "HPAE cells transducing C1-GDI-1 mutant", "result": "significantly reduced"}, {"measurement": "thrombin-induced decrease in TER", "setting": "HPAE cells transducing S91A (S96A) GDI-1 mutant", "result": "not seen"}]}
